According to US20250120932A1, “PHARMACEUTICAL COMPOSITION” (NEUROPRO THERAPEUTICS, INC., priority 2021, published 2025):

Experiment: Pharmacokinetic study in cynomolgus monkeys after oral (nasogastric) gavage, sublingual and intravenous administration
Type: in vivo
Conditions: cynomolgus monkey, plasma, Plasma Bumetanide Dibenzylamide concentration, monkey; for concentration at 0.5 h: 0.50 h
Experimental: A pharmacokinetic study was done in cynomolgus monkeys following single oral (nasogastric) gavage, sublingual, and intravenous administration. […] Calibration curves, blanks, and analytical QCs were prepared in monkey plasma (K2EDTA). The extracts were evaporated to dryness, reconstituted, and then analyzed by LC-MS/MS. The calibration range was 0.250-250 ng/mL for both analytes.
If the criteria for either the calibration curve or the analytical QCs were not met, the analytical run was rejected. […] No deviations were found during the bioanalytical phase of the study conducted by Origin. Calibration curves were derived from the individual analyte to internal standard peak area ratios using the least squared regression of the ratio versus the nominal concentration of the calibration standard, prepared in duplicate. The regression was then used to back-calculate the concentration of each calibration standard, QC sample and study sample. […] Analyst® Software Version 1.6.3 (Applied Biosystems-MDS Sciex), operated with Windows® (Microsoft), was used for instrument control, data acquisition, and peak integrations. Peak area ratios, standard curve regressions, and sample concentration/accuracy values were calculated with Analyst® Software Version 1.6.3. Other results (e.g., mean statistics) were calculated with Excel® (Microsoft).
There was no apparent sex difference for the second formulation. […] A fourth formulation comprising the composition B listed in Table 54 was also administered in monheys.

[1] = both sexes, oral, 30 mg/kg, Mean, NG 30 mg/kg, First Formulation (Form 1), N=4
[2] = both sexes, oral, 30 mg/kg, Mean, NG 30 mg/kg, Second Formulation (Form 3), N=4
[3] = both sexes, oral, 30 mg/kg, Median, NG 30 mg/kg, First Formulation (Form 1), N=4
[4] = both sexes, oral, 30 mg/kg, Median, NG 30 mg/kg, Second Formulation (Form 3), N=4
[5] = intravenous, 2 mg/kg, Mean, dose column 2 mg/kg (title 30 mg/kg), Third Formulation (Form 4), N=4
[6] = intravenous, 2 mg/kg, dose column 2 mg/kg (title 30 mg/kg), Third Formulation (Form 4), individual animals
[7] = other: sublingual, 5 mg/kg, Mean, SL, dose column 5 mg/kg (title 30 mg/kg), Fourth Formulation (Form 2), N=4
[8] = other: sublingual, 5 mg/kg, Median, SL, dose column 5 mg/kg (title 30 mg/kg), Fourth Formulation (Form 2), N=4

A concentration at 0 h [1] of 0 µg/mL, a concentration at 0.25 h [1] of 4.31 ng/mL and a concentration at 0.5 h [1] of 5.9 ng/mL were found for CCCCNc1cc(C(=O)N(Cc2ccccc2)Cc2ccccc2)cc(S(N)(=O)=O)c1Oc1ccccc1 [Bumetanide Dibenzylamide, N, N-dibenzyl 3-aminosulfonyl-5-butylamino-4-phenoxybenzamide] in this work. The concentration at 1 h (both sexes, oral, 30 mg/kg, Mean, NG 30 mg/kg, First Formulation (Form 1), 1.00 h, N=4) was 13.2 ng/mL, the concentration at 2 h (both sexes, oral, 30 mg/kg, Mean, NG 30 mg/kg, First Formulation (Form 1), 2.00 h, N=4) was 62.6 ng/mL and the concentration at 4 h (both sexes, oral, 30 mg/kg, Mean, NG 30 mg/kg, First Formulation (Form 1), 4.00 h, N=4) was 66.8 ng/mL. The concentration at 8 h (both sexes, oral, 30 mg/kg, Mean, NG 30 mg/kg, First Formulation (Form 1), 8.00 h, N=4) was 44.9 ng/mL, the concentration at 24 h (both sexes, oral, 30 mg/kg, Mean, NG 30 mg/kg, First Formulation (Form 1), 24.00 h, N=4) was 8.59 ng/mL and the concentration at 32 h (both sexes, oral, 30 mg/kg, Mean, NG 30 mg/kg, First Formulation (Form 1), 32.00 h, N=4) was 4.51 ng/mL. It also gave a concentration at 0 h [2] of 0 µg/mL, a concentration at 0.25 h [2] of 0.283 ng/mL and a concentration at 0.5 h [2] of 2.85 ng/mL. The concentration at 1 h (both sexes, oral, 30 mg/kg, Mean, NG 30 mg/kg, Second Formulation (Form 3), 1.00 h, N=4) was 11.5 ng/mL, the concentration at 2 h (both sexes, oral, 30 mg/kg, Mean, NG 30 mg/kg, Second Formulation (Form 3), 2.00 h, N=4) was 54.1 ng/mL and the concentration at 4 h (both sexes, oral, 30 mg/kg, Mean, NG 30 mg/kg, Second Formulation (Form 3), 4.00 h, N=4) was 231 ng/mL. For the same compound, the concentration at 8 h (both sexes, oral, 30 mg/kg, Mean, NG 30 mg/kg, Second Formulation (Form 3), 8.00 h, N=4) was 590 ng/mL, the concentration at 24 h (both sexes, oral, 30 mg/kg, Mean, NG 30 mg/kg, Second Formulation (Form 3), 24.00 h, N=4) was 13.6 ng/mL and the concentration at 32 h (both sexes, oral, 30 mg/kg, Mean, NG 30 mg/kg, Second Formulation (Form 3), 32.00 h, N=4) was 2.94 ng/mL. For the same compound, the concentration at 0 h [3] was 0 µg/mL, the concentration at 0.25 h [3] was 0.962 ng/mL and the concentration at 0.5 h [3] was 2.82 ng/mL. For the same compound, the concentration at 1 h (both sexes, oral, 30 mg/kg, Median, NG 30 mg/kg, First Formulation (Form 1), 1.00 h, N=4) was 10.1 ng/mL, the concentration at 2 h (both sexes, oral, 30 mg/kg, Median, NG 30 mg/kg, First Formulation (Form 1), 2.00 h, N=4) was 42.6 ng/mL and the concentration at 4 h (both sexes, oral, 30 mg/kg, Median, NG 30 mg/kg, First Formulation (Form 1), 4.00 h, N=4) was 37.6 ng/mL. The concentration at 8 h (both sexes, oral, 30 mg/kg, Median, NG 30 mg/kg, First Formulation (Form 1), 8.00 h, N=4) was 31.3 ng/mL, the concentration at 24 h (both sexes, oral, 30 mg/kg, Median, NG 30 mg/kg, First Formulation (Form 1), 24.00 h, N=4) was 5.38 ng/mL and the concentration at 32 h (both sexes, oral, 30 mg/kg, Median, NG 30 mg/kg, First Formulation (Form 1), 32.00 h, N=4) was 3.75 ng/mL. For the same compound, the concentration at 0 h [4] was 0 µg/mL, the concentration at 0.25 h [4] was 0.256 ng/mL and the concentration at 0.5 h [4] was 2.44 ng/mL. It also gave a concentration at 1 h (both sexes, oral, 30 mg/kg, Median, NG 30 mg/kg, Second Formulation (Form 3), 1.00 h, N=4) of 9.43 ng/mL, a concentration at 2 h (both sexes, oral, 30 mg/kg, Median, NG 30 mg/kg, Second Formulation (Form 3), 2.00 h, N=4) of 58.6 ng/mL and a concentration at 4 h (both sexes, oral, 30 mg/kg, Median, NG 30 mg/kg, Second Formulation (Form 3), 4.00 h, N=4) of 194 ng/mL. It also gave a concentration at 8 h (both sexes, oral, 30 mg/kg, Median, NG 30 mg/kg, Second Formulation (Form 3), 8.00 h, N=4) of 566 ng/mL, a concentration at 24 h (both sexes, oral, 30 mg/kg, Median, NG 30 mg/kg, Second Formulation (Form 3), 24.00 h, N=4) of 10 ng/mL and a concentration at 32 h (both sexes, oral, 30 mg/kg, Median, NG 30 mg/kg, Second Formulation (Form 3), 32.00 h, N=4) of 1.86 ng/mL. It also gave a concentration at 0 h (both sexes, oral, 30 mg/kg, NG 30 mg/kg, First Formulation (Form 1), individual animals) of 0 µg/mL, a concentration at 0 h (both sexes, oral, 30 mg/kg, NG 30 mg/kg, Second Formulation (Form 3), individual animals) of 0 µg/mL and a concentration at 8 h (both sexes, oral, 30 mg/kg, NG 30 mg/kg, Second Formulation (Form 3), 8.00 h, individual animals) of 442 ng/mL. The concentration at 0.08 h [5] was 1440 ng/mL, the concentration at 0.5 h [5] was 664 ng/mL and the concentration at 1 h (intravenous, 2 mg/kg, Mean, dose column 2 mg/kg (title 30 mg/kg), Third Formulation (Form 4), 1.00 h, N=4) was 483 ng/mL. It also gave a concentration at 2 h (intravenous, 2 mg/kg, Mean, dose column 2 mg/kg (title 30 mg/kg), Third Formulation (Form 4), 2.00 h, N=4) of 285 ng/mL, a concentration at 4 h (intravenous, 2 mg/kg, Mean, dose column 2 mg/kg (title 30 mg/kg), Third Formulation (Form 4), 4.00 h, N=4) of 114 ng/mL and a concentration at 8 h (intravenous, 2 mg/kg, Mean, dose column 2 mg/kg (title 30 mg/kg), Third Formulation (Form 4), 8.00 h, N=4) of 30.7 ng/mL. For the same compound, the concentration at 24 h (intravenous, 2 mg/kg, Mean, dose column 2 mg/kg (title 30 mg/kg), Third Formulation (Form 4), 24.00 h, N=4) was 3.57 ng/mL, the concentration at 32 h (intravenous, 2 mg/kg, Mean, dose column 2 mg/kg (title 30 mg/kg), Third Formulation (Form 4), 32.00 h, N=4) was 1.48 ng/mL and the concentration at 0.08 h [6] was 1860 ng/mL. The concentration at 0.5 h [6] was 717 ng/mL, the concentration at 1 h (intravenous, 2 mg/kg, dose column 2 mg/kg (title 30 mg/kg), Third Formulation (Form 4), 1.00 h, individual animals) was 538 ng/mL and the concentration at 2 h (intravenous, 2 mg/kg, dose column 2 mg/kg (title 30 mg/kg), Third Formulation (Form 4), 2.00 h, individual animals) was 332 ng/mL. For the same compound, the concentration at 4 h (intravenous, 2 mg/kg, dose column 2 mg/kg (title 30 mg/kg), Third Formulation (Form 4), 4.00 h, individual animals) was 149 ng/mL, the concentration at 0 h [7] was 0 µg/mL and the concentration at 0.25 h [7] was 0 ng/mL. The concentration at 0.5 h [7] was 0 ng/mL, the concentration at 1 h (other: sublingual, 5 mg/kg, Mean, SL, dose column 5 mg/kg (title 30 mg/kg), Fourth Formulation (Form 2), 1.0 h, N=4) was 0 ng/mL and the concentration at 2 h (other: sublingual, 5 mg/kg, Mean, SL, dose column 5 mg/kg (title 30 mg/kg), Fourth Formulation (Form 2), 2.0 h, N=4) was 0.155 ng/mL. The concentration at 4 h (other: sublingual, 5 mg/kg, Mean, SL, dose column 5 mg/kg (title 30 mg/kg), Fourth Formulation (Form 2), 4.0 h, N=4) was 0.114 ng/mL, the concentration at 8 h (other: sublingual, 5 mg/kg, Mean, SL, dose column 5 mg/kg (title 30 mg/kg), Fourth Formulation (Form 2), 8.0 h, N=4) was 0.41 ng/mL and the concentration at 24 h (other: sublingual, 5 mg/kg, Mean, SL, dose column 5 mg/kg (title 30 mg/kg), Fourth Formulation (Form 2), 24.0 h, N=4) was 0.248 ng/mL. It also gave a concentration at 32 h (other: sublingual, 5 mg/kg, Mean, SL, dose column 5 mg/kg (title 30 mg/kg), Fourth Formulation (Form 2), 32.0 h, N=4) of 0.0803 ng/mL, a concentration at 0 h [8] of 0 µg/mL and a concentration at 0.25 h [8] of 0 ng/mL. It also gave a concentration at 0.5 h [8] of 0 ng/mL and a concentration at 1 h (other: sublingual, 5 mg/kg, Median, SL, dose column 5 mg/kg (title 30 mg/kg), Fourth Formulation (Form 2), 1.0 h, N=4) of 0 ng/mL.
